Laboratory results published in patent EP4653437A2 (Innovo Therapeutics Inc., priority 2023, dated 2024).

Legend:
human 15-PGDH = biological target: T1, human 15-PGDH (Homo sapiens, UniProt P15428); assay: Evaluation of 15-PGDH inhibitory activity (fluorescence enzyme assay, NAD+/PGE2); type: biochemical; conditions: human 15-PGDH enzyme, fluorescence Vmax
T1 construct: purchased R&D System 5660-DH
T1 sequence (P15428 1-266): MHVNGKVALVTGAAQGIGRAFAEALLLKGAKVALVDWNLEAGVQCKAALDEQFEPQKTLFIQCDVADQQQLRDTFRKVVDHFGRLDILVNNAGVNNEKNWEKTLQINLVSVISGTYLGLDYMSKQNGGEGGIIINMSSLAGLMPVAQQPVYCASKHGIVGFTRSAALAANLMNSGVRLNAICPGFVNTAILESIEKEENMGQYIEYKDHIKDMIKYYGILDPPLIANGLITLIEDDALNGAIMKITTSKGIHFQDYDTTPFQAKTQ
Description: 15-PGDH inhibition activity of Example compounds was measured as follows. 6.7 ng of human 15-PGDH (R&D System# 5660-DH) enzyme (10 µL) was added to a black 96 well plate, 60 µL of buffer (50 mM Tris-HCl, pH 7.5, 0.01% Tween 20) was added, and 10 µL of 200 µM β-Nicotinamide adenine dinucleotide sodium salt (Sigma, Cat# N0632-5G) was added. 10 µL of (10x) compound solution in DMSO was added and reacted for 10 minutes at room temperature.

A549 cells = assay: Measurement of PGE2-increasing activity in A549 cells (IL-1β stimulated, PGE2 quantified in supernatant); type: cell-based; conditions: Homo sapiens, 24 h; concentration of 1 µM of each compound; IL-1β treated A549 cells; read-out: Increased PGE2 production in A549 cells
Description: A549 cells were prepared at a cell number of 1 x 10^5/mL in F12K medium containing 10% FBS (Fetal Bovine Serum), and 2 x 10^4/200 µL was added to each well of a 96-well cell culture plate, and then cultured in an incubator with 5% CO2 at 37 °C for 24 hours. After the culture was complete and all F12K medium was removed, all wells were washed once with 100 µL of PBS, and treated with 160 µL of serum-free F12K medium. Then, 20 µL of IL-1β diluted 10-fold to a concentration of 1 ng/mL in serum-free F12K medium was treated to wells to be treated with IL-1β, and 20 µL of serum-free F12K medium was treated to wells not treated with IL-1β. For the wells to be treated with the compound, 20 µL of the compound dissolved in 100% DMSO was diluted to a concentration 10 times of the desired compound concentration in serum-free F12K medium so that the final DMSO concentration treated to the cells was 0.1%, and for the wells not to be treated with the compound, 20 µL of DMSO diluted in serum-free F12K medium so that the final DMSO concentration treated to the cells was 0.1% was treated. In order to confirm the increase or decrease in the secretion amount of PGE2 in the supernatant collected after culturing for 24 hours in an incubator with 5% CO2 at 37 °C, PGE2 was quantified using the Prostaglandin E2 Parameter (SKGE004B).

Row | IC50 (human 15-PGDH) [nM] | SMILES | fold induction at 1 µM (A549 cells)
1 | ≤ 100 | O=C(c1cnn2c(-c3ccc(-c4noc(=O)[nH]4)cc3)cccc12)N1CCCCC1 [Example 116, 3-(4-(3-(piperidine-1-carbonyl)pyrazolo[1,5-a]pyridin-7-yl)phenyl)-1,2,4-oxadiazol-5(4H)-one] | > 1.5
2 | ≤ 100 | CC(C)Nc1ccc(-c2cccc3c(C(=O)N4CCCCC4)cnn23)cn1 [Example 109, (7-(6-(isopropylamino)pyridin-3-yl)pyrazolo[1,5-a]pyridin-3-yl)(piperidin-1-yl)methanone] | > 1.5
3 | ≤ 100 | O=C(c1cnn2c(-c3cnc(N4CCOC4=O)c(F)c3)cccc12)N1CCCCC1 [Example 323, 3-(3-fluoro-5-(3-(piperidine-1-carbonyl)pyrazolo[1,5-a]pyridin-7-yl)pyridin-2-yl)oxazolidin-2-one] | > 1.5
4 | ≤ 100 | CC(C)N1CCN(C(=O)c2ccc(-c3cccc4c(C(=O)N5CCCCC5)cnn34)cc2)CC1 [Example 68, (4-isopropylpiperazin-1-yl)(4-(3-(piperidine-1-carbonyl)pyrazolo[1,5-a]pyridin-7-yl)phenyl)methanone] | > 1.5
5 | ≤ 100 | O=C(c1cccc(-c2cccc3c(C(=O)N4CCCCC4)cnn23)c1)N1CCOCC1 [Example 26, (7-(3-(morpholine-4-carbonyl)phenyl)pyrazolo[1,5-a]pyridin-3-yl)(piperidin-1-yl)methanone] | > 1.5
6 | ≤ 100 | CN1CCN(C(=O)c2ccc(-c3cccc4c(C(=O)N5CCCCC5)cnn34)cc2)CC1 [Example 67, (4-methylpiperazin-1-yl)(4-(3-(piperidine-1-carbonyl)pyrazolo[1,5-a]pyridin-7-yl)phenyl)methanone] | > 1.5
7 | ≤ 100 | O=C(Nc1cccc2c(C(=O)N3CCCCC3)cnn12)c1ccc(Cl)cc1 [Example 239, 4-chloro-N-[3-(piperidine-1-carbonyl)pyrazolo[1,5-a]pyridin-7-yl]benzamide] | > 1.5
8 | ≤ 100 | O=C(c1cnn2c(-c3ccc(-c4noc(C(F)(F)F)n4)cc3)cccc12)N1CCCCC1 [Example 361, 1-piperidyl-[7-[4-[5-(trifluoromethyl)-1,2,4-oxadiazol-3-yl]phenyl]pyrazolo[1,5-a]pyridin-3-yl]methanone] | > 1.5
9 | ≤ 100 | O=C(c1cnn2c(-c3cc(-c4cnoc4)nc(N4CCOCC4)c3)cccc12)N1CCCCC1 [Example 366, (7-(2-(isoxazol-4-yl)-6-morpholinopyridin-4-yl)pyrazolo[1,5-a]pyridin-3-yl)(piperidin-1-yl)methanone] | > 1.5
10 | ≤ 100 | O=C(c1cnn2c(-c3ccc(-c4noc(=O)[nH]4)cc3F)cccc12)N1CCCCC1 [Example 295, 3-[3-fluoro-4-[3-(piperidine-1-carbonyl)pyrazolo[1,5-a]pyridin-7-yl]phenyl]-4H-1,2,4-oxadiazol-5-one] | > 1.5
11 | 100 to 1000 | COc1ccc(-c2ccc3[nH]c(C(=O)N4CCCCC4)cc3n2)cc1OC [Example 181, (5-(3,4-dimethoxyphenyl)-1H-pyrrolo[3,2-b]pyridin-2-yl)(piperidin-1-yl)methanone] | –
12 | 100 to 1000 | O=C(c1cc2nc(N3Cc4ccccc4C3=O)ccc2[nH]1)N1CCCCC1 [Example 191, 2-(2-(piperidine-1-carbonyl)-1H-pyrrolo[3,2-b]pyridin-5-yl)isoindolin-1-one] | –
13 | ≤ 100 | O=C(c1c[nH]c2c(-c3cccc(Cl)c3)cccc12)N1CCCCC1 [Example 169, (7-(3-chlorophenyl)-1H-indol-3-yl)(piperidin-1-yl)methanone] | –
14 | ≤ 100 | O=C(c1cnn2c(-c3ccc4cn[nH]c4c3)cccc12)N1CCCCC1 [Example 125, (7-(1H-indazol-6-yl)pyrazolo[1,5-a]pyridin-3-yl)(piperidin-1-yl)methanone] | –
15 | 100 to 1000 | O=C(c1cc2nc(-c3ccc4c(c3)OCCO4)ccc2[nH]1)N1CCCCC1 [Example 178, (5-(2,3-dihydrobenzo[b][1,4]dioxin-6-yl)-1H-pyrrolo[3,2-b]pyridin-2-yl)(piperidin-1-yl)methanone] | –
16 | ≤ 100 | O=C(c1cnn2c(-c3ccc([N+](=O)[O-])cc3)cccc12)N1CCCCC1 [Example 13, (7-(4-nitrophenyl)pyrazolo[1,5-a]pyridin-3-yl)(piperidin-1-yl)methanone] | –

Row | IC50 (human 15-PGDH) [nM] | SMILES | fold induction at 1 µM (A549 cells)
17 | ≤ 100 | CC(=O)Nc1ccc(-c2cccc3c(C(=O)N4CCCCC4)cnn23)cc1 [Example 97, N-(4-(3-(piperidine-1-carbonyl)pyrazolo[1,5-a]pyridin-7-yl)phenyl)acetamide] | –
18 | ≤ 100 | O=C(c1cnc2c(-c3cccc(Cl)c3)cc(F)cn12)N1CCCCC1 [Example 167, (8-(3-chlorophenyl)-6-fluoroimidazo[1,2-a]pyridin-3-yl)(piperidin-1-yl)methanone] | –
19 | ≤ 100 | COc1cccc(-c2cccc3c(C(=O)N4CCCCC4)cnn23)c1 [Example 4, (7-(3-methoxyphenyl)pyrazolo[1,5-a]pyridin-3-yl)(piperidin-1-yl)methanone] | –
20 | ≤ 100 | O=C(c1cnn2c(-c3cccc(Cl)c3)cccc12)N1CCCCC1 [Example 2, (7-(3-chlorophenyl)pyrazolo[1,5-a]pyridin-3-yl)(piperidin-1-yl)methanone] | –
21 | ≤ 100 | O=C(c1cnn2c(-c3ccc4[nH]c(=O)ccc4c3)cccc12)N1CCCCC1 [Example 145, 6-(3-(piperidine-1-carbonyl)pyrazolo[1,5-a]pyridin-7-yl)quinolin-2(1H)-one] | –
22 | > 1000 | O=C(c1cc2c(-c3ccc4c(c3)OCO4)nccc2[nH]1)N1CCCCC1 [Example 174, (4-(benzo[d][1,3]dioxol-5-yl)-1H-pyrrolo[3,2-c]pyridin-2-yl)(piperidin-1-yl)methanone] | –
23 | ≤ 100 | COC(=O)c1ccc(-c2cccc3c(C(=O)N4CCCCC4)cnn23)cc1 [Example 11, methyl 4-(3-(piperidine-1-carbonyl)pyrazolo[1,5-a]pyridin-7-yl)benzoate] | –
24 | ≤ 100 | Cn1ccc2cc(-c3cccc4c(C(=O)N5CCCCC5)cnn34)ccc2c1=O [Example 139, 2-methyl-6-(3-(piperidine-1-carbonyl)pyrazolo[1,5-a]pyridin-7-yl)isoquinolin-1(2H)-one] | –
25 | > 1000 | O=C(c1cc2c(-c3ccc4c(c3)OCO4)cncc2[nH]1)N1CCCCC1 [Example 175, (4-(benzo[d][1,3]dioxol-5-yl)-1H-pyrrolo[2,3-c]pyridin-2-yl)(piperidin-1-yl)methanone] | –
26 | 100 to 1000 | O=C(c1cc2nc(-c3cccc(Cl)c3)ccc2[nH]1)N1CCCCC1 [Example 185, (5-(3-chlorophenyl)-1H-pyrrolo[3,2-b]pyridin-2-yl)(piperidin-1-yl)methanone] | –
27 | > 1000 | O=C(c1n[nH]c2c(-c3cccc(Cl)c3)cccc12)N1CCCCC1 [Example 161, (7-(3-chlorophenyl)-1H-indazol-3-yl)(piperidin-1-yl)methanone] | –
28 | > 1000 | O=C(c1cc2c(-c3ccc4c(c3)OCO4)ncnn2c1)N1CCCCC1 [Example 176, (4-(benzo[d][1,3]dioxol-5-yl)pyrrolo[2,1-f][1,2,4]triazin-6-yl)(piperidin-1-yl)methanone] | –
29 | ≤ 100 | O=C(c1cnn2c(-c3ccc4c(c3)OCO4)cccc12)N1CCCCC1 [Example 121, (7-(benzo[d][1,3]dioxol-5-yl)pyrazolo[1,5-a]pyridin-3-yl)(piperidin-1-yl)methanone] | –
30 | ≤ 100 | O=C(c1cnn2c(-c3coc4ccccc34)cccc12)N1CCCCC1 [Example 122, (7-(benzofuran-3-yl)pyrazolo[1,5-a]pyridin-3-yl)(piperidin-1-yl)methanone] | –
31 | ≤ 100 | O=C(c1cncc(-c2cccc3c(C(=O)N4CCCCC4)cnn23)c1)N1CC2(CCC2)C1 [Example 43, (7-(5-(2-azaspiro[3.3]heptane-2-carbonyl)pyridin-3-yl)pyrazolo[1,5-a]pyridin-3-yl)(piperidin-1-yl)methanone] | –
32 | 100 to 1000 | CC(=O)c1cnn2c(-c3ccc(C#N)cc3)cccc12 [Example 152, 4-(3-acetylpyrazolo[1,5-a]pyridin-7-yl)benzonitrile] | –
